{"source": "patent US20220372441A1", "about": "“MICRORNAS ENRICHED IN MEGAKARYOCYTIC EXTRACELLULAR VESICLES AND USES THEREOF” (University of Delaware, priority 2019, published 2022)", "key": {"[1]": {"tested_on": "PTEN", "test": "PTEN protein expression by flow cytometry in CD34+ HSPCs", "assay_type": "cell-based, human", "details": "JNK inhibitor pretreatment, MkMP co-culture 24 hours (FIG. 13A)", "protocol": "Cells were fixed in 4% paraformaldehyde for 15 min at room temperature, followed by the permeabilization in 90% methanol for 30 min at 4° C. After washing in PBS, cells were stained with Alexa 647-conjugated anti-mTOR (#5048S), PE-conjugated anti-Akt (#8790S), or Alexa 488-conjugated anti-p-Akt (#4071S) antibodies from Cell Signaling, or Alexa 647-conjugated anti-p-mTOR (#564242) from BD bioscience, for 1 hour at room temperature, followed by flow-cytometric analysis.\nPhosphatase and TENsin homolog (PTEN) is a negative regulator of PI3K/Akt signaling in HSC development. Loss of PTEN results in enhanced cellular proliferation and megakaryopoiesis due to overactive of PI3K/Akt signaling. We hypothesized that activation of PI3K/Akt/mTOR signaling by MkMPs might be PTEN mediated. We thus examined the mRNA level of PTEN by quantitative PCR, and PTEN protein level by flow cytometry and immunoblotting. The impact on PTEN mRNA levels appears higher than that on protein levels. Compared to the vehicle control, PTEN protein or mRNA levels were around 10% or 30% lower, respectively, in HSPCs co-cultured with MkMPs (FIGS. 13A and 13B). […] These statistically-significant but relatively low-impact effects on PTEN protein expression would be expected given that the measurements were done within the first 24 hours of the co-culture, rather than late in the co-culture."}, "[2]": {"tested_on": "PTEN", "test": "PTEN mRNA level by qRT-PCR in CD34+ HSPCs", "assay_type": "cell-based, human", "details": "JNK inhibitor pretreatment, MkMP co-culture 24 hours (FIG. 13B)", "protocol": "Quantitative reverse transcription PCR (qRT-PCR): CD34^+ HSPCs pretreated with JNK inhibitor or solution without an inhibitor were co-cultured with MkMPs, non-targeting miR-loaded MkMPs, miR-486-5p inhibitor-loaded MkMPs at 30 MPs per cell, or vehicle control. At 24 hr, cells were harvested and total RNA was isolated, reversed transcribed for qPCR assay as described by Kao and Papoutsakis (Sci Adv. 2018; 4:eaau6762). qPCR assays for PTEN and GAPDH were performed with PerfeCTa SYBR Green Supermix (QuantaBio) and the following primers: Forward (5′-[…]-3′) (SEQ ID NO: 1), Reverse (5′-[…]-3′) (SEQ ID NO: 2) for PTEN, and Forward (5′-[…]-3′) (SEQ ID NO: 3), Reverse (5′-[…]-3′) (SEQ ID NO: 4) for GAPDH. PTEN mRNA level were quantified by normalized to GAPDH mRNA level as the reference gene.\nPhosphatase and TENsin homolog (PTEN) is a negative regulator of PI3K/Akt signaling in HSC development. Loss of PTEN results in enhanced cellular proliferation and megakaryopoiesis due to overactive of PI3K/Akt signaling. We hypothesized that activation of PI3K/Akt/mTOR signaling by MkMPs might be PTEN mediated. We thus examined the mRNA level of PTEN by quantitative PCR, and PTEN protein level by flow cytometry and immunoblotting. The impact on PTEN mRNA levels appears higher than that on protein levels. […]"}, "[3]": {"tested_on": "CD34+ HSPCs", "test": "Signaling-inhibitor experiments: MkMP-induced Mk differentiation of inhibitor-pretreated CD34+ HSPCs", "details": "for fraction of cells CD34+CD41−: day 7, representative quadrant plots (FIG. 11E); for percent of cells CD34−CD41+: day 12, representative quadrant plots (FIG. 11E)", "method": "Signaling-inhibitor experiments: 60,000 CD34^+ HSPCs were pretreated with signaling inhibitors for 30 min, followed by co-culture with MkMPs (30 MPs per cell) in IMDM supplemented with 10% BIT 9500 and 50 ng/mL SCF. Inhibitors were replenished at days 3 and 7. At day 4, 7 and 12, cells were harvested for flow cytometric analysis of CD41, CD42b, and CD34 expression. Total-cell and Mk counts were measured at day 7.\nTo further investigate the effects of MkMPs in promoting megakaryocytic differentiation of CD34^+ HSPCs, and how this might relate to the miR content of MkMPs, we next probed likely signaling pathways using kinase inhibitors. […] Briefly, CD34^+ HSPCs were pretreated with kinase inhibitors of chosen signaling pathways (JNK, p38, MEK, PI3K, Akt and mTOR inhibitors, Table 6) for 30 min before they were co-cultured with MkMPs at the ratio of 10 MkMPs/cell. Inhibitors were replenished at days 3 and 7. CD41, CD42b and CD34 expression, and cell numbers were measured at days 4, 7, and 12."}, "[4]": {"tested_on": "CD34+ HSPCs", "test": "Transfection of CD34+ HSPCs with miR mimics, culture without TPO; flow cytometry of CD41/CD42b, Mk and total cell counts", "assay_type": "cell-based, human", "protocol": "Transfection of CD34^+ HSPCs with miR mimics: 200,000 CD34^+ cells were freshly thawed and cultured in IMDM supplemented with 20% BIT 9500, and 100 ng/mL SCF. After 3 hours, cells were transfected with 8 μM of miR mimics, non-targeting miR (miR-NC), or without miR (No miR) using the Amaxa Nucleofector II with program U-08. […] Cells cultured in TPO-supplemented medium (100 ng/ml TPO), or co-cultured with MkMPs served as positive controls (TPO, MkMP). The medium was replaced one day after transfection. […] At day 13, cells were harvested for serotonin (5-HT), von willebrand factor (vWF), beta 1 tubulin (TUBB1), and DAPI staining, as described^7. The images were taken by ZEISS LSM 880 multiphoton confocal microscope. At day 16, cells were harvested for ploidy analysis by flow-cytometric analysis as described by Lindsey and Papoutsakis (Br J Haematol. 2011; 152(4):469-484).\nTo determine if there is a dose effect of miR mimics on Mk differentiation of HSPCs, using CD41 expression as the key early Mk-differentiation marker, we carried out a pilot study with two donor CD34^+-cell samples. CD34^+ HSPCs were transfected with high (8 μM) or low (2 μM) concentrations of miR-486-5p or miR-22-3p (generally known as miR-22) mimics were and cultured without TPO. […]"}, "[5]": {"details": "day 7, MkMP co-culture, inhibitor 10 uM (FIG. 11A)"}}, "data": [{"compound": "Oc1c2ccccc2c2c3c(cccc13)N=N2", "note": "[SP600125]", "values": [{"measurement": "PTEN protein level above vehicle-control level", "setting": "[1]", "result": 17, "unit": "%"}, {"measurement": "PTEN mRNA level above vehicle-control level", "setting": "[2]", "result": 260, "unit": "%"}, {"measurement": "CD41 expression", "setting": "[3]; [5]", "result": 32.8, "unit": "%"}, {"measurement": "fraction of cells CD34+CD41−", "setting": "[3]", "result": 52.1, "unit": "%"}, {"measurement": "percent of cells CD34−CD41+", "setting": "[3]", "result": 12.6, "unit": "%"}]}, {"compound": "TPO: recombinant human thrombopoietin, 100 ng/ml, positive control", "values": [{"measurement": "percent of cells expressing CD41", "setting": "[4]; day 13, electroporated CD34+ cells, miR mimics without TPO, TPO 100 ng/ml or MkMP co-culture as positive controls (FIGS. 7A, 7B)", "result": 56, "unit": "%"}, {"measurement": "percent CD41+CD42b+ double positive cells", "setting": "[4]; day 13, representative quadrant plots (FIG. 7D)", "result": 38.9, "unit": "%"}]}, {"compound": "O=c1cc(N2CCOCC2)oc2c(-c3ccccc3)cccc12", "note": "[LY-294002]", "values": [{"measurement": "percent of cells CD34−CD41+", "setting": "[3]", "result": 16.5, "unit": "%"}]}, {"compound": "CO[C@H]1C[C@@H]2CC[C@@H](C)[C@@](O)(O2)C(=O)C(=O)N2CCCC[C@H]2C(=O)O[C@H]([C@H](C)C[C@@H]2CC[C@@H](O)[C@H](OC)C2)CC(=O)[C@H](C)/C=C(\\C)[C@@H](O)[C@@H](OC)C(=O)[C@H](C)C[C@H](C)/C=C/C=C/C=C/1C", "note": "[Rapamycin]", "values": [{"measurement": "CD41 expression", "setting": "[3]; [5]", "result": 32.1, "unit": "%"}, {"measurement": "fraction of cells CD34+CD41−", "setting": "[3]", "result": 48.3, "unit": "%"}, {"measurement": "percent of cells CD34−CD41+", "setting": "[3]", "result": 6.0, "unit": "%"}]}, {"compound": "C[S+]([O-])c1ccc(-c2nc(-c3ccncc3)c(-c3ccc(F)cc3)[nH]2)cc1", "note": "(centres unmarked) [SB203580]", "values": [{"measurement": "fraction of cells CD34+CD41−", "setting": "[3]", "result": 43.4, "unit": "%"}, {"measurement": "CD41 expression", "setting": "[3]; day 12, MkMP co-culture, compared to MkMP control (FIG. 11B)", "result": "significantly suppressed CD41 expression"}]}, {"compound": "COC[C@H]1OC(=O)c2coc3c2[C@@]1(C)C1=C(C3=O)[C@@H]2CCC(=O)[C@@]2(C)C[C@H]1OC(C)=O", "note": "[Wortmannin]", "values": [{"measurement": "percent of cells CD34−CD41+", "setting": "[3]", "result": 25.3, "unit": "%"}]}]}
